Assay results as given in publication PMC3961306, “Comparison of the Cancer Gene Targeting and Biochemical Selectivities of All Targeted Kinase Inhibitors Approved for Clinical Use” (PLoS ONE, 2014).

Key:
Assay in all cases: Kinase profiling in a biochemical assay panel (mobility shift assays and ELISA), %-inhibition at 1 μM; selectivity entropy
[1] = biological target: panel of more than 300 wild-type and mutant kinases (313 kinase panel) (Homo sapiens, UniProt P41279)
[2] = biological target: panel of more than 300 wild-type and mutant kinases (313 kinase panel) (Homo sapiens, UniProt Q15303)
panel of more than 300 wild-type and mutant kinases (313 kinase panel) (Homo sapiens, UniProt Q15303), sequence (Q15303 26-1308, change not shown): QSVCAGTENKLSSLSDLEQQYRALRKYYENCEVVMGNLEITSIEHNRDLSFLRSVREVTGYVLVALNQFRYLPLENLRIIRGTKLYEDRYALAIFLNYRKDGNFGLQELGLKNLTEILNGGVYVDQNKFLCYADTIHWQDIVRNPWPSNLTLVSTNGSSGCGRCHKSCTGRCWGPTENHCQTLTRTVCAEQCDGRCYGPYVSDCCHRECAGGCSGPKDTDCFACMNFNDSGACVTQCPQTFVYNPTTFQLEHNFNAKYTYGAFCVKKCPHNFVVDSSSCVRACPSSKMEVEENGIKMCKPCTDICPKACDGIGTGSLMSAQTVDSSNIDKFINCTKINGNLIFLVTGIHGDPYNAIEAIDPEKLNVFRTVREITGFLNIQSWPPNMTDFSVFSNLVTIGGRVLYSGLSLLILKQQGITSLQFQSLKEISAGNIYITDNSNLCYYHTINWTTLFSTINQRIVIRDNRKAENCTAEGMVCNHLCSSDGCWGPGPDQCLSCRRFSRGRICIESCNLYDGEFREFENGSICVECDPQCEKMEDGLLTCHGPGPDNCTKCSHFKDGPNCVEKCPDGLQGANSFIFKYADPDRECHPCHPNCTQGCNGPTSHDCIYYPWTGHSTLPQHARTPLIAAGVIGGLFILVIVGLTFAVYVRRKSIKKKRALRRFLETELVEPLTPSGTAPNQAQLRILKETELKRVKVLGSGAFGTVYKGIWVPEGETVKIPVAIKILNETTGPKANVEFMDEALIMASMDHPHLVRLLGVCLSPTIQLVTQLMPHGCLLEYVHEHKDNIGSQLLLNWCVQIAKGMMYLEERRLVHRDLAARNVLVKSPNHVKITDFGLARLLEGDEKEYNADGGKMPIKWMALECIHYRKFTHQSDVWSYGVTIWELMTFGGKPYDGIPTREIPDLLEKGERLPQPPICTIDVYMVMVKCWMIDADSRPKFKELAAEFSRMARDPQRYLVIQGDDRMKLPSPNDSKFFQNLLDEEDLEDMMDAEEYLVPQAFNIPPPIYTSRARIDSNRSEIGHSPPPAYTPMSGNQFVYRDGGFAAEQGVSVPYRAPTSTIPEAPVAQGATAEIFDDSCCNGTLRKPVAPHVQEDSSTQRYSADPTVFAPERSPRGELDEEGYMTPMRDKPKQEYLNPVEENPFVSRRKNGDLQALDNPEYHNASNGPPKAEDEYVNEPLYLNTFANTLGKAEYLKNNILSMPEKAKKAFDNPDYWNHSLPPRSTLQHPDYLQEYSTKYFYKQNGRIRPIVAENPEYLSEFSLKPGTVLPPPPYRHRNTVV

[3] = biological target: panel of more than 300 wild-type and mutant kinases (313 kinase panel) (Homo sapiens, UniProt Q9H1R3)
[4] = biological target: T1, panel of more than 300 wild-type and mutant kinases (313 kinase panel) (Homo sapiens, UniProt P43403)
T1 sequence (P43403 1-619): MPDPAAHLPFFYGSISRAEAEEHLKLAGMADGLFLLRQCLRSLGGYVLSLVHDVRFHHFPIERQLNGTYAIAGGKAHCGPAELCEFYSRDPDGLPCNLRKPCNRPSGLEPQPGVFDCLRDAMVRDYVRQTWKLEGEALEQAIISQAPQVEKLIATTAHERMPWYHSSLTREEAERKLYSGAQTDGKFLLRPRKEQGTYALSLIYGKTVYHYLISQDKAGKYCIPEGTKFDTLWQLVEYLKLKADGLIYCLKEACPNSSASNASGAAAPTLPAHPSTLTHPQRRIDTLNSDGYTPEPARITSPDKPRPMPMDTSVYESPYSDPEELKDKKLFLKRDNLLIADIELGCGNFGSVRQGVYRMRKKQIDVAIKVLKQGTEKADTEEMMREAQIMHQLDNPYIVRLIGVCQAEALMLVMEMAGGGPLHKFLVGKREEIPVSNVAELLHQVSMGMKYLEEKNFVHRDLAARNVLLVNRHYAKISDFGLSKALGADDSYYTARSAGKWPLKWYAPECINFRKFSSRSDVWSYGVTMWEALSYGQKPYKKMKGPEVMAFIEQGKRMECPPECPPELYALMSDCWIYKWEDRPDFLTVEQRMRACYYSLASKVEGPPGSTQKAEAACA

[5] = biological target: panel of more than 300 wild-type and mutant kinases (313 kinase panel) (Homo sapiens, UniProt Q16644)
panel of more than 300 wild-type and mutant kinases (313 kinase panel) (Homo sapiens, UniProt Q16644), sequence (Q16644 whole entry, change not shown): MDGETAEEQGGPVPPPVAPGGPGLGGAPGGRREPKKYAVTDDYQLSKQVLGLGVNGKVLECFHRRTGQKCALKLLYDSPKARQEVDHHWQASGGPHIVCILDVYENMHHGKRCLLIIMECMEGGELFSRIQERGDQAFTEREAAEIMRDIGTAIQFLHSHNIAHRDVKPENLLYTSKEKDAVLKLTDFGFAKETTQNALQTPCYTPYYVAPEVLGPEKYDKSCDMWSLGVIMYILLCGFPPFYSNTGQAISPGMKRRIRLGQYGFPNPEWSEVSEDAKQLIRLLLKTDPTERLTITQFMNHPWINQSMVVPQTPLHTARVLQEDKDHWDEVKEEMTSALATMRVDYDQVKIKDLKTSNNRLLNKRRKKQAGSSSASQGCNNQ

[6] = biological target: T2, panel of more than 300 wild-type and mutant kinases (313 kinase panel) (Homo sapiens, UniProt O15146)
T2 sequence (O15146 24-869): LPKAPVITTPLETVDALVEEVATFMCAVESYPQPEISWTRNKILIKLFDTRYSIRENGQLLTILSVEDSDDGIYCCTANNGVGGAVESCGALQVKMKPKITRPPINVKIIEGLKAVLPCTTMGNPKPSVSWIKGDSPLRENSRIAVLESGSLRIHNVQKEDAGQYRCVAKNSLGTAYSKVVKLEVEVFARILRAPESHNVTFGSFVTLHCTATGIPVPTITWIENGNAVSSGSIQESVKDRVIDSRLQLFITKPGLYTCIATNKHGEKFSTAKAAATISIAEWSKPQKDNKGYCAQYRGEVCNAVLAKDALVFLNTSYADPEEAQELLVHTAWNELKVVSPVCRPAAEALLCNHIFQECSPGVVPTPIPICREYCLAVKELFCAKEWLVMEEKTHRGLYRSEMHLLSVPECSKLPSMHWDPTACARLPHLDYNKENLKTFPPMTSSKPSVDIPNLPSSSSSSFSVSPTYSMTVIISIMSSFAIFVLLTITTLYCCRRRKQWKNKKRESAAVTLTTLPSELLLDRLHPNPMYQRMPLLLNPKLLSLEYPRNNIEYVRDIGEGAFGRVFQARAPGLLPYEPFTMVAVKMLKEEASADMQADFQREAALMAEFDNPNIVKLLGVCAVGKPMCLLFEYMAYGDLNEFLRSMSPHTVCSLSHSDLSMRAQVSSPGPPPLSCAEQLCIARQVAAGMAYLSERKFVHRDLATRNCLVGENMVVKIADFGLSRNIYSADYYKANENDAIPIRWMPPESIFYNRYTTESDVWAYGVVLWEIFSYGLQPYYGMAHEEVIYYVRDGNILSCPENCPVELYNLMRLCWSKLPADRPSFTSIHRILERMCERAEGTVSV

[7] = biological target: panel of more than 300 wild-type and mutant kinases (313 kinase panel) (Homo sapiens, UniProt P19784)
panel of more than 300 wild-type and mutant kinases (313 kinase panel) (Homo sapiens, UniProt P19784), sequence (P19784 whole entry, change not shown): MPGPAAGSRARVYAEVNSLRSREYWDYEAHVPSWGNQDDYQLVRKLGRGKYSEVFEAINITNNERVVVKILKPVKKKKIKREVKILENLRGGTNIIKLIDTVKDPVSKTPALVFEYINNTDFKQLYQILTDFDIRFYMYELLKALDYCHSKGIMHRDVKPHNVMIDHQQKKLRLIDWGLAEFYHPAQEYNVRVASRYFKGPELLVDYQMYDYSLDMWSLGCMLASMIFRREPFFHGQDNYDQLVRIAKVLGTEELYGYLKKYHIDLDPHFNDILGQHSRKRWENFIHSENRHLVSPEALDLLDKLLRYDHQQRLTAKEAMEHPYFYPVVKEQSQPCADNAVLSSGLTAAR

[8] = biological target: panel of more than 300 wild-type and mutant kinases (313 kinase panel) (Homo sapiens, UniProt P11802)
panel of more than 300 wild-type and mutant kinases (313 kinase panel) (Homo sapiens, UniProt P11802), sequence (P11802 whole entry, change not shown): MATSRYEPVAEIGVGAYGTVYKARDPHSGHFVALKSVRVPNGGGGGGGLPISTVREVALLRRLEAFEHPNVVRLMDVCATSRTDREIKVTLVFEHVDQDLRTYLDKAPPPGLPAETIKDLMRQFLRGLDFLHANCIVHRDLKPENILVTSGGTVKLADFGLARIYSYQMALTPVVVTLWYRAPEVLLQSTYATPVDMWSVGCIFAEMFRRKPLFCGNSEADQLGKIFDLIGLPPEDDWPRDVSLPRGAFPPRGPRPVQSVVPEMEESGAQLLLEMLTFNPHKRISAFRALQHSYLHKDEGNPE

[9] = kinase MAPKAPK3, compound at 1 μM
[10] = kinase CDK4/CycD3, 1 μM compound

panel of more than 300 wild-type and mutant kinases (313 kinase panel) (Homo sapiens, UniProt P41279), sequence (P41279 whole entry, change not shown): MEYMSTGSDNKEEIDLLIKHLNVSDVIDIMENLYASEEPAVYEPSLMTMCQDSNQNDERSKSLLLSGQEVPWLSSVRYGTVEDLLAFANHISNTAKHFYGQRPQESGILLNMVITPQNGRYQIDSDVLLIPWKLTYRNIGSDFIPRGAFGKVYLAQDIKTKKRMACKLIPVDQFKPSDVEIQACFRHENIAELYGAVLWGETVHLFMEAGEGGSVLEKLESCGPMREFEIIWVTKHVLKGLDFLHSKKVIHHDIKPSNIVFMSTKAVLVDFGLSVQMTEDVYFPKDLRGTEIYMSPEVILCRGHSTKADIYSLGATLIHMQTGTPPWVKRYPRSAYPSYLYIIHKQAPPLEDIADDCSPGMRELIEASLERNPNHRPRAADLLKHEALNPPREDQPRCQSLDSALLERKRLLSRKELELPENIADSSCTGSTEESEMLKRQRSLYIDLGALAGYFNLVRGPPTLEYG

Compound | %-inhibition of COT ([1]; kinase COT, compound at 1 μM) | %-inhibition of HER4 ([2]; kinase HER4, compound at 1 μM) | %-inhibition of skMLCK ([3]; kinase skMLCK, 1 μM) | %-inhibition of ZAP70 ([4]; kinase ZAP70, compound at 1 μM) | %-inhibition of MAPKAPK3 [5, 9] | %-inhibition of MUSK ([6]; kinase MUSK, 1 μM) | %-inhibition, CK2α2/β ([7]; kinase CK2α2/β, 1 μM compound) | %-inhibition, CDK4/CycD3 [8, 10] | %-inhibition, CK2α2/β ([7]; 1 µM) | %-inhibition of HER4 ([2]; 1 µM) | %-inhibition of skMLCK ([3]; 1 µM) | %-inhibition, CDK4/CycD3 ([8]; 1 µM) | %-inhibition of COT ([1]; 1 µM) | %-inhibition of MAPKAPK3 ([5]; 1 µM) | %-inhibition of MUSK ([6]; 1 µM) | %-inhibition of ZAP70 ([4]; 1 µM)
CN(C)C/C=C/C(=O)Nc1cc2c(Nc3ccc(F)c(Cl)c3)ncnc2cc1O[C@H]1CCOC1 [afatinib] | -7.4% | – | – | – | – | – | – | – | – | – | – | – | – | – | – | –
COc1cc(Nc2c(C#N)cnc3cc(OCCCN4CCN(C)CC4)c(OC)cc23)c(Cl)cc1Cl [bosutinib] | 7% | 102% | 71% | 76% | -12% | 58% | – | – | – | – | – | – | – | – | – | –
COc1cc2nccc(Oc3ccc(NC(=O)C4(C(=O)Nc5ccc(F)cc5)CC4)cc3)c2cc1OC [cabozantinib] | 18% | 23% | 12% | 0.856% | -9% | 95% | 9% | -5% | – | – | – | – | – | – | – | –
C[C@@H](Oc1cc(-c2cnn(C3CCNCC3)c2)cnc1N)c1c(Cl)ccc(F)c1Cl [crizotinib] | 11% | -18% | – | 21% | -13% | 99% | -10% | 7% | – | – | – | – | – | – | – | –
CC(C)(C)c1nc(-c2cccc(NS(=O)(=O)c3c(F)cccc3F)c2F)c(-c2ccnc(N)n2)s1 [dabrafenib] | 9% | 23% | 0.52% | 3.47% | -11% | 16% | – | – | – | – | – | – | – | – | – | –
Cc1nc(Nc2ncc(C(=O)Nc3c(C)cccc3Cl)s2)cc(N2CCN(CCO)CC2)n1 [dasatinib] | – | 103% | – | – | – | – | -4.67% | 2.8% | – | – | – | – | – | – | – | –
C#Cc1cccc(Nc2ncnc3cc(OCCOC)c(OCCOC)cc23)c1 [erlotinib] | – | – | – | – | – | – | – | – | -5.48% | 97% | 19% | 1.86% | -0.486% | 0.621% | 12% | –
CO[C@H]1C[C@@H]2CC[C@@H](C)[C@@](O)(O2)C(=O)C(=O)N2CCCC[C@H]2C(=O)O[C@H]([C@H](C)C[C@@H]2CC[C@@H](OCCO)[C@H](OC)C2)CC(=O)[C@H](C)/C=C(\C)[C@@H](O)[C@@H](OC)C(=O)[C@H](C)C[C@H](C)/C=C/C=C/C=C/1C [everolimus] | -3% | -7% | -8% | -2% | -15% | -7% | -1.28% | -9% | – | – | – | – | – | – | – | –
O=S(=O)(c1cccc2cnccc12)N1CCCNCC1 [fasudil] | 12% | -0.227% | -1.56% | -2% | -14% | 2% | -3.75% | -2.33% | – | – | – | – | – | – | – | –
CS(=O)(=O)CCNCc1ccc(-c2ccc3ncnc(Nc4ccc(OCc5cccc(F)c5)c(Cl)c4)c3c2)o1 [lapatinib] | -0.221% | – | 2.11% | 6% | -3.64% | 4.38% | -3.45% | – | – | 102% | – | 1.35% | – | – | – | –
Cc1cn(-c2cc(NC(=O)c3ccc(C)c(Nc4nccc(-c5cccnc5)n4)c3)cc(C(F)(F)F)c2)cn1 [nilotinib] | 2.3% | – | -14% | – | 2% | – | – | – | -4.26% | 73% | – | -4% | – | – | 42% | 2.52%
Cc1ccc(Nc2nccc(N(C)c3ccc4c(C)n(C)nc4c3)n2)cc1S(N)(=O)=O [pazopanib] | -0.233% | 16% | – | 39% | -6% | 9% | 0.17% | 16% | – | – | – | – | – | – | – | –
Cc1ccc(C(=O)Nc2ccc(CN3CCN(C)CC3)c(C(F)(F)F)c2)cc1C#Cc1cnc2cccnn12 [ponatinib] | -2.42% | 101% | 36% | 5% | – | 100% | – | 24% | – | – | – | – | – | – | – | –
CNC(=O)c1cc(Oc2ccc(NC(=O)Nc3ccc(Cl)c(C(F)(F)F)c3)c(F)c2)ccn1 [regorafenib] | -4% | 3.81% | 6.59% | -0.475% | -15% | 80% | -5.46% | 6.52% | – | – | – | – | – | – | – | –
N#CC[C@H](C1CCCC1)n1cc(-c2ncnc3[nH]ccc23)cn1 [ruxolitinib] | -3.66% | – | -4.71% | 2.76% | -13% | 56% | – | -1.74% | -7% | -1.9% | – | – | – | – | – | –
CCN(CC)CCNC(=O)c1c(C)[nH]c(/C=C2\C(=O)Nc3ccc(F)cc32)c1C [sunitinib] | – | – | 91% | – | – | 99% | 25% | – | – | – | – | – | – | – | – | –
CO[C@H]1C[C@@H]2CC[C@@H](C)[C@@](O)(O2)C(=O)C(=O)N2CCCC[C@H]2C(=O)O[C@H]([C@H](C)C[C@@H]2CC[C@@H](OC(=O)C(C)(CO)CO)[C@H](OC)C2)CC(=O)[C@H](C)/C=C(\C)[C@@H](O)[C@@H](OC)C(=O)[C@H](C)C[C@H](C)/C=C/C=C/C=C/1C [temsirolimus] | 8% | -5.46% | -1.73% | -2.76% | -11% | -9% | -5.28% | -2.83% | – | – | – | – | – | – | – | –
COc1cc2c(Nc3ccc(Br)cc3F)ncnc2cc1OCC1CCN(C)CC1 [vandetanib] | -2.53% | – | 13% | 4.47% | -2% | 42% | -7% | -9% | – | – | – | – | – | – | – | –
